This is an account of results in patent US9487510B2, “Substituted heterocyclic acetamides as kappa opioid receptor (KOR) agonists” (Dr. Reddy's Laboratories Ltd., priority 2012, dated 2016).

Some results are limits rather than exact numbers.

In one data set the target is human KOR receptor (Homo sapiens, UniProt P41145). As to the kind of experiment: IP-One HTRF assay, potency of KOR agonists, dose-response in transiently transfected COS-7 cells. It counts as cell-based.
Sequence of human KOR receptor (P41145 whole entry): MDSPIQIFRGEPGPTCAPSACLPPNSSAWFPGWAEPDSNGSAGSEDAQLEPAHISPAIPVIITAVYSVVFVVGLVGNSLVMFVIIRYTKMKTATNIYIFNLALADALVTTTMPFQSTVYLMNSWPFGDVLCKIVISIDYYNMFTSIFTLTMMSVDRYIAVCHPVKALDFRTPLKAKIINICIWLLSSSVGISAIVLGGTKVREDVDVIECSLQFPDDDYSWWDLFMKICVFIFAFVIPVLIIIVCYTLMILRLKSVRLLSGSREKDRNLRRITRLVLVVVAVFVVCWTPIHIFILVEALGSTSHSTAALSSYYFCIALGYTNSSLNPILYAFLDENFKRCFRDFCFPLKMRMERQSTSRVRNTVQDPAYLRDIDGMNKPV

As a reminder, the EC50 is the concentration needed to bring the measured effect to its halfway point. As a reminder, the melting point is the temperature of the solid-liquid transition. Regarding `O=C(Cc1ccc2oc(=O)[nH]c2c1)N[C@H](CN1CC[C@H](O)C1)c1ccccc1` [Example 57, N-((S)-2-((S)-3-hydroxypyrrolidin-1-yl)-1-phenylethyl)-2-(2-oxo-2,3-dihydrobenzo[d]oxazol-5-yl)acetamide], the melting point was 210 to 211 °C. Besides, on human KOR receptor, the concentration for a half-maximal effect (EC50) is not above 50 nM.
`CN(C(=O)Cc1ccc2oc(=O)n(CC(=O)O)c2c1)[C@H](CN1CC[C@@H](O)C1)C1CCCCC1` [Example 97] yielded a melting point of 233 to 234 °C. The same molecule returned an EC50 on human KOR receptor not above 50 nM.
For `CN(C(=O)Cc1ccc2oc(=O)[nH]c2c1)C(CN1CCCC1)c1cccc(OCC(=O)O)c1` (stereo in doubt) [Example 90, (R)-2-(3-(1-(N-methyl-2-(2-oxo-2,3-dihydrobenzo[d]oxazol-5-yl)acetamido)-2-(pyrrolidin-1-yl)ethyl)phenoxy)acetic acid], the melting point lay in the range of 227 to 229 °C. The same molecule displayed an EC50 on human KOR receptor of 51 to 100 nM.
For `CN(C(=O)Cc1ccc2oc(=O)n(C)c2c1)[C@H](CN1CCC(O)C1)c1cccc(-c2nn[nH]n2)c1` (stereo in doubt) [Example 107, N-((S)-1-(3-(2H-tetrazol-5-yl)phenyl)-2-((S)-3-hydroxypyrrolidin-1-yl)ethyl)-N-methyl-2-(3-methyl-2-oxo-2,3-dihydrobenzo[d]oxazol-5-yl)acetamide] the same measures were 130 to 132 °C and not above 50 nM.
The molecule `CN(C(=O)Cc1ccc2oc(=O)n(Cc3ccc(-c4nnn[nH]4)cc3)c2c1)[C@H](CN1CCC(O)C1)c1ccccc1` (stereo in doubt) [Example 104, 2-(3-(4-(1H-tetrazol-5-yl)benzyl)-2-oxo-2,3-dihydrobenzo[d]oxazol-5-yl)-N-((S)-2-((S)-3-hydroxypyrrolidin-1-yl)-1-phenylethyl)-N-methylacetamide] gave a melting point of 218 to 220 °C. The molecule also came in with a concentration for a half-maximal effect (EC50) on human KOR receptor not above 50 nM.
In turn, `O=C(Cc1ccc2oc(=O)n(Cc3ccccc3)c2c1)N[C@H](CN1CCCC1)c1cccc(O)c1` [Example 20, (S)-2-(3-benzyl-2-oxo-2,3-dihydrobenzo [d]oxazol-5-yl)-N-(1-(3-hydroxyphenyl)-2-(pyrrolidin-1-yl)ethyl)acetamide] returned a melting point of 104 to 106 °C. Further, the 50% effective concentration (EC50) at human KOR receptor was not above 50 nM.
Taken in the same sequence, the figures for `O=C(Cc1ccc2oc(=O)[nH]c2c1)N[C@H](CN1CC[C@H](O)C1)C1CCCCC1` [Example 67, N-((S)-1-cyclohexyl-2-((S)-3-hydroxypyrrolidin-1-yl)ethyl)-2-(2-oxo-2,3-dihydrobenzo[d]oxazol-5-yl)acetamide] were 173 to 174 °C and not above 50 nM.
Taken in the same sequence, the figures for `N#Cc1ccc(Cn2c(=O)oc3ccc(CC(=O)N[C@H](CN4CC[C@H](O)C4)c4ccccc4)cc32)cc1` [Example 59, 2-(3-(4-cyanobenzyl)-2-oxo-2,3-dihydrobenzo[d]oxazol-5-yl)-N-((S)-2-((S)-3-hydroxypyrrolidin-1-yl)-1-phenylethyl)acetamide] were 194 °C and not above 50 nM.
Regarding `CN(C(=O)Cc1ccc2oc(=O)n(Cc3ccccc3)c2c1)[C@H](CN1CCCC1)c1cccc(OCC(=O)OC(C)(C)C)c1` [Example 68, (S)-tert-butyl-2-(3-(1-(2-(3-benzyl-2-oxo-2,3-dihydrobenzo[d]oxazol-5-yl)-N-methylacetamido)-2-(pyrrolidin-1-yl)ethyl)phenoxy)acetate], the melting point lay within 111 to 113 °C. The molecule also yielded an EC50 at human KOR receptor not above 50 nM.
`CN(C(=O)Cc1ccc2c(c1)NS(=O)(=O)C2)[C@H](CN1CC[C@H](O)C1)c1ccccc1` [Example 136, 2-(2,2-dioxido-1,3-dihydrobenzo[c]isothiazol-6-yl)-N-((S)-2-((S)-3-hydroxypyrrolidin-1-yl)-1-phenylethyl)-N-methylacetamide]: the melting point lay in the range of 232 to 234 °C. Moreover, the EC50 on human KOR receptor was not above 50 nM.
`O=C1Cc2ccc(CC(=O)N[C@H](CN3CC[C@H](O)C3)C3CCCCC3)cc2N1` [Example 69, N-((S)-1-cyclohexyl-2-((S)-3-hydroxypyrrolidin-1-yl)ethyl)-2-(2-oxoindolin-6-yl)acetamide] yielded a melting point of 132 to 133 °C. This molecule displayed an EC50 on human KOR receptor not above 50 nM.
The molecule `CN(C(=O)Cc1ccc2c(c1)NC(=O)C2)[C@H](CN1CC[C@H](F)C1)c1cccc(-c2nn[nH]n2)c1` [Example 113, N-((S)-1-(3-(2H-tetrazol-5-yl)phenyl)-2-((S)-3-fluoropyrrolidin-1-yl)ethyl)-N-methyl-2-(2-oxoindolin-6-yl)acetamide] returned a melting point of 175 to 177 °C. The same molecule came in with an EC50 on human KOR receptor not above 50 nM.
`CN(C(=O)Cc1ccc2oc(=O)[nH]c2c1)[C@H](CN1CCC(O)C1)c1cccc(OCC(=O)O)c1.Cl` (stereo in doubt) [Example 96, 2-(3-((S)-2-((R)-3-hydroxypyrrolidin-1-yl)-1-(N-methyl-2-(2-oxo-2,3-dihydrobenzo[d]oxazol-5-yl)acetamido)ethyl)phenoxy)acetic acid]: the melting point was in the range of 95 to 96 °C. The molecule further returned a 50% effective concentration (EC50) on human KOR receptor not above 50 nM.
`CN(C(=O)Cc1ccc2oc(=O)[nH]c2c1)[C@H](CN1CCC(O)C1)c1cccc(OCC(=O)OC(C)(C)C)c1` (stereo in doubt) [Example 77, Tert-butyl 2-(3-((S)-2-((R)-3-hydroxypyrrolidin-1-yl)-1-(N-methyl-2-(2-oxo-2,3-dihydrobenzo[d]oxazol-5-yl)acetamido)ethyl)phenoxy)acetate] returned a melting point of 124 to 125 °C. At human KOR receptor, this molecule had an EC50 not above 50 nM.
`N#Cc1cccc(Cn2c(=O)oc3ccc(CC(=O)N[C@H](CN4CC[C@H](O)C4)c4ccccc4)cc32)c1` [Example 72, 2-(3-(3-cyanobenzyl)-2-oxo-2,3-dihydrobenzo[d]oxazol-5-yl)-N-((S)-2-((S)-3-hydroxypyrrolidin-1-yl)-1-phenylethyl)acetamide] registered a melting point of 65 to 68 °C. At human KOR receptor, this molecule showed an EC50 not above 50 nM.
`CN(C(=O)Cc1ccc2oc(=O)n(Cc3ccccc3)c2c1)[C@H](CN1CCCC1)c1cccc(O)c1` [Example 89, (S)-2-(3-benzyl-2-oxo-2,3-dihydrobenzo[d]oxazol-5-yl)-N-(1-(3-hydroxyphenyl)-2-(pyrrolidin-1-yl)ethyl)-N-methylacetamide]: the melting point lay within 165 to 167 °C. In addition, at human KOR receptor, the half-maximal effective concentration (EC50) is 101 to 1000 nM.
`CN1C(=O)Cc2ccc(CC(=O)N(C)[C@H](CN3CCC(O)C3)c3cccc(-c4nn[nH]n4)c3)cc21` (stereo in doubt) [Example 111, N-((S)-1-(3-(2H-tetrazol-5-yl)phenyl)-2-((S)-3-hydroxypyrrolidin-1-yl)ethyl)-N-methyl-2-(1-methyl-2-oxoindolin-6-yl)acetamide] showed a melting point of 198 to 200 °C. Besides, the EC50 at human KOR receptor is not above 50 nM.
As to `CN(C(=O)Cc1ccc2c(c1)NC(=O)C2)[C@H](CN1CC[C@H](O)C1)c1cccc(-c2nn[nH]n2)c1` [Example 110, N-((S)-1-(3-(2H-tetrazol-5-yl)phenyl)-2-((S)-3-hydroxypyrrolidin-1-yl)ethyl)-N-methyl-2-(2-oxoindolin-6-yl)acetamide], the melting point fell in the range of 208 to 210 °C. Further, on human KOR receptor, the EC50 was not above 50 nM.
On to `Cl.O=C(O)COc1cccc(C(CN2CCCC2)NC(=O)Cc2ccc3c(c2)NC(=O)C3)c1` (stereo not shown) [Example 92, 2-(3-(1-(2-(2-oxoindolin-6-yl)acetamido)-2-(pyrrolidin-1-yl)ethyl)phenoxy)acetic acid], for which the melting point lay in the range of 104 to 106 °C. The molecule further came in with a concentration for a half-maximal effect (EC50) at human KOR receptor not above 50 nM.
For `CN(C(=O)Cc1ccc2oc(=O)[nH]c2c1)[C@H](CN1CCC(O)C1)c1cccc(-c2nn[nH]n2)c1` (stereo in doubt) [Example 99, N-((S)-1-(3-(2H-tetrazol-5-yl)phenyl)-2-((S)-3-hydroxypyrrolidin-1-yl)ethyl)-N-methyl-2-(2-oxo-2,3-dihydrobenzo[d]oxazol-5-yl)acetamide] the same measures were 228 to 230 °C and not above 50 nM.
The molecule `CN(C(=O)Cc1ccc2ccc(=O)[nH]c2c1)[C@H](CN1CCCC1)c1ccccc1` [Example 49, (S)-N-methyl-2-(2-oxo-1,2-dihydroquinolin-7-yl)-N-(1-phenyl-2-(pyrrolidin-1-yl)ethyl)acetamide] yielded a melting point of 170 to 172 °C. This molecule displayed a concentration for a half-maximal effect (EC50) at human KOR receptor not below 1000 nM.
Taken in the same sequence, the figures for `Cn1c(=O)oc2ccc(CC(=O)N[C@H](CN3CCC(O)C3)c3ccccc3)cc21` (stereo in doubt) [Example 45, N-((S)-2-((S)-3-hydroxypyrrolidin-1-yl)-1-phenylethyl)-2-(3-methyl-2-oxo-2,3-dihydrobenzo[d]oxazol-5-yl)acetamide] were 105 to 106 °C and not above 50 nM.
In the case of `CN(C(=O)Cc1ccc2oc(=O)[nH]c2c1)[C@H](CN1CC[C@H](F)C1)c1cccc(-c2nn[nH]n2)c1` [Example 109, N-((S)-1-(3-(2H-tetrazol-5-yl)phenyl)-2-((S)-3-fluoropyrrolidin-1-yl)ethyl)-N-methyl-2-(2-oxo-2,3-dihydrobenzo[d]oxazol-5-yl)acetamide], the melting point is 133 to 134 °C. The same molecule came in with an EC50 on human KOR receptor not above 50 nM.
Consider `O=C(Cc1ccc2oc(=O)[nH]c2c1)N[C@H](CN1CCCC1)c1cccc(O)c1` [Example 84, (S)-N-(1-(3-hydroxyphenyl)-2-(pyrrolidin-1-yl)ethyl)-2-(2-oxo-2,3-dihydrobenzo[d]oxazol-5-yl)acetamide], for which the melting point lay within 140 to 142 °C. This molecule displayed an EC50 at human KOR receptor not above 50 nM.
Taken in the same sequence, the figures for `CN(C(=O)Cc1ccc2c(c1)NC(=O)C2)C(CN1CCCC1)c1cccc(OCC(=O)O)c1.Cl` (stereo not shown) [Example 87, 2-(3-(1-(N-methyl-2-(2-oxoindolin-6-yl)acetamido)-2-(pyrrolidin-1-yl)ethyl)phenoxy)acetic acid hydrochloride] were 169 to 171 °C and not above 50 nM.
Turning to `Cn1c(=O)oc2ccc(CC(=O)N[C@H](CN3CCCC3)c3ccccc3)cc21` [Example 61, (S)-2-(3-methyl-2-oxo-2,3-dihydrobenzo[d]oxazol-5-yl)-N-(1-phenyl-2-(pyrrolidin-1-yl)ethyl)acetamide], the melting point was 105 to 107 °C. At human KOR receptor, this molecule displayed a concentration giving a half-maximal response (EC50) of 51 to 100 nM.
